Measured values reported in patent US9040528B2, “Chemical compounds 542” (AstraZeneca AB, priority 2008, dated 2015).

molecular target: Escherichia coli DNA gyrase A/B tetramer (Escherichia coli (strain K12), UniProt P0AES4+P0AES6); test: DNA gyrase supercoiling activity fluorescence polarisation assay; assay type: biochemical; details: not given
Protocol: DNA Gyrase Supercoiling Activity Fluorescence Polarisation Assay
The supercoiling reactions may be quenched by the addition of 10 microliters/well of 40 nM oligodeoxynucleotide probe in 3× triplex-forming buffer consisting of 150 mM NaCl, and 150 mM sodium acetate at pH 3.5. The oligodeoxynucleotide probe may be 5′-BODIPY-FL-labeled […]. After 60 minutes, the fluorescence anisotropy of the BODIPY-FL may be measured in a Tecan Ultra plate reader, using 485 nm excitation and 535 nm emission filters equipped with polarizers. The IC50 may be determined by nonlinear regression using two control reactions. The first contains no test compound but 0.8% DMSO (100% activity) while the second control reaction contains 5 μM Ciprofloxacin and 0.8% DMSO (0% activity).

Compound `CC(C)NC(=O)c1noc2c(Cl)c3c(nc12)CC1(C(=O)NC(=O)NC1=O)[C@H]1[C@H](C)O[C@H](C)CN31` (relative stereo) [Example 127, (2R,4S,4aS)-rel-Chloro-N-isopropyl-2,4-dimethyl-2′,4′,6′-trioxo-2,2′,3′,4,4a,4′,6,6′-octahydro-1H,1′H-spiro[isoxazolo[4,5-g][1,4]oxazino[4,3-a][1,5]naphthyridine-5,5′-pyrimidine]-8-carboxamide] has an IC50 of 19000 nM.

same assay, conditions: 5 nM enzyme, relaxed plasmid, 0.3 mM ATP, ambient temperature; read-out: E. coli DNA gyrase supercoiling IC50

Going from `CCNC(=O)c1noc2c(Cl)c3c(nc12)CC1(C(=O)NC(=O)NC1=O)[C@H]1[C@H](C)O[C@H](C)CN31` (relative stereo) [Example 126, (2R,4S,4aS)-rel-11-chloro-N-ethyl-2,4-dimethyl-2′,4′,6′-trioxo-2,2′,3′,4,4a,4′,6,6′-octahydro-1H,1′H-spiro[isoxazolo[4,5-g][1,4]oxazino[4,3-a][1,5]naphthyridine-5,5′-pyrimidine]-8-carboxamide] to `C[C@@H]1CN2c3c(nc4c(C(=O)NCc5cccc(C#N)c5)noc4c3Cl)CC3(C(=O)NC(=O)NC3=O)[C@H]2[C@H](C)O1` (relative stereo) [Example 133, (2R,4S,4aS)-rel-11-chloro-N-(3-cyanobenzyl)-2,4-dimethyl-2′,4′,6′-trioxo-2,2′,3′,4,4a,4′,6,6′-octahydro-1H,1′H-spiro[isoxazolo[4,5-g][1,4]oxazino[4,3-a][1,5]naphthyridine-5,5′-pyrimidine]-8-carboxamide], the IC50 rises from 500 nM to 13000 nM (26-fold).

First: C[C@@H]1CN2c3c(cc4c(-n5cncn5)noc4c3F)CC3(C(=O)NC(=O)NC3=O)[C@H]2[C@H](C)O1 [Example 53(a), (2R,4 S,4 aS)-11-fluoro-2,4-dimethyl-8-(1H-1,2,4-triazol-1-yl)-2,4,4a,6-tetrahydro-1H,1′H-spiro[isoxazolo[4,5-g][1,4]oxazino[4,3-a]quinoline-5,5′-pyrimidine]-2′,4′,6′(3′H)-trione]
Second: C[C@@H]1CN2c3c(cc4c(-n5ccnn5)noc4c3F)CC3(C(=O)NC(=O)NC3=O)[C@H]2[C@H](C)O1 (relative stereo) [Example 57, (2R,4S,4aS)-rel-11-fluoro-2,4-dimethyl-8-(1H-1,2,3-triazol-1-yl)-1,2,4,4a-tetrahydro-2′H,6H-spiro[1,4-oxazino[4,3-a][1,2]oxazolo[4,5-g]quinoline-5,5′-pyrimidine]-2′,4′,6′(1′H,3′H)-trione]
The IC50 of the first is 7.5-fold lower: 200 nM for the first, 1500 nM for the second. The first is the more potent here.

First: C[C@@H]1CN2c3c(cc4c(-c5cncs5)noc4c3F)CC3(C(=O)NC(=O)NC3=O)[C@H]2[C@H](C)O1 (relative stereo) [Example 98, (2R,4S,4aS)-rel-11-fluoro-2,4-dimethyl-8-(thiazol-5-yl)-2,4,4a,6-tetrahydro-1H,1′H-spiro[isoxazolo[4,5-g][1,4]oxazino[4,3-a]quinoline-5,5′-pyrimidine]-2′,4′,6′(3′H)-trione]
Second: C[C@@H]1CN2c3c(cc4c(-c5cn[nH]c5)noc4c3F)CC3(C(=O)NC(=O)NC3=O)[C@H]2[C@H](C)O1 (relative stereo) [Example 64, (2R,4S,4aS)-rel-11-fluoro-2,4-dimethyl-8-(1H-pyrazol-4-yl)-1,2,4,4a-tetrahydro-2′H,6H-spiro[1,4-oxazino[4,3-a][1,2]oxazolo[4,5-g]quinoline-5,5′-pyrimidine]-2′,4′,6′(1′H,3′H)-trione]
The IC50 of the first is 2-fold lower: 400 nM for the first, 800 nM for the second.

First: C[C@@H]1CN2c3c(cc4c(N)noc4c3F)CC3(C(=O)NC(=O)NC3=O)[C@H]2[C@H](C)O1 (relative stereo) [Example 1, (2R,4S,4aS)-rel-8-amino-11-fluoro-2,4-dimethyl-1,2,4,4a-tetrahydro-2′H,6H-spiro[isoxazolo[4,5-g][1,4]oxazino[4,3-a]quinoline-5,5′-pyrimidine]-2′,4′,6′(1′H,3′H)-trione]
Second: C[C@H]1CN2c3c(cc4c(C(F)F)noc4c3F)CC3(C(=O)NC(=O)NC3=O)[C@@H]2[C@@H](C)O1 [Example 93(a), (2S,4R,4aR)-8-(difluoromethyl)-11-fluoro-2,4-dimethyl-2,4,4a,6-tetrahydro-1H,1′H-spiro[isoxazolo[4,5-g][1,4]oxazino[4,3-a]quinoline-5,5′-pyrimidine]-2′,4′,6′(3′H)-trione]
The IC50 of the first is 110-fold lower: 500 nM for the first, 56000 nM for the second.

`CNC(=O)c1cnn(-c2noc3c(F)c4c(cc23)CC2(C(=O)NC(=O)NC2=O)[C@H]2[C@H](C)O[C@H](C)CN42)c1` (relative stereo) [Example 188, 1-[(2R,4S,4aS)-rel-11-fluoro-2,4-dimethyl-2′,4′,6′-trioxo-1,1′,2,3′,4,4′,4a,6′-octahydro-2′H,6H-spiro[1,4-oxazino[4,3-a][1,2]oxazolo[4,5-g]quinoline-5,5′-pyrimidin]-8-yl]-N-methyl-1H-pyrazole-4-carboxamide] and `C[C@@H]1CN2c3c(cc4c(C(=O)N(C)C)noc4c3F)CC3(C(=O)NC(=O)NC3=O)[C@H]2[C@H](C)O1` (relative stereo) [Example 136, (2R,4S,4aS)-rel-11-fluoro-N,N,2,4-tetramethyl-2′,4′,6′-trioxo-2,2′,3′,4,4a,4′,6,6′-octahydro-1H,1′H-spiro[isoxazolo[4,5-g][1,4]oxazino[4,3-a]quinoline-5,5′-pyrimidine]-8-carboxamide] are within 1.5-fold of each other in IC50: 2700 nM for the first, 2800 nM for the second.

Compared with `C[C@@H]1CN2c3c(cc4c(C#N)noc4c3F)CC3(C(=O)NC(=O)NC3=O)[C@H]2[C@H](C)O1` (relative stereo) [Example 183, (2R,4S,4aS)-rel-11-fluoro-2,4-dimethyl-2′,4′,6′-trioxo-1,1′,2,3′,4,4′,4a,6′-octahydro-2′H,6H-spiro[1,4-oxazino[4,3-a][1,2]oxazolo[4,5-g]quinoline-5,5′-pyrimidine]-8-carbonitrile], `C[C@@H]1CN2c3c(cc4c(C5CC5)noc4c3F)CC3(C(=O)NC(=O)NC3=O)[C@H]2[C@H](C)O1` (relative stereo) [Example 4, (2R,4S,4aS)-rel-8-cyclopropyl-11-fluoro-2,4-dimethyl-1,2,4,4a-tetrahydro-2′H,6H-spiro[isoxazolo[4,5-g][1,4]oxazino[4,3-a]quinoline-5,5′-pyrimidine]-2′,4′,6′(1′H,3′H)-trione] is 40-fold lower in IC50: 12000 nM for the first, 300 nM for the second.

Going from `CCOC(=O)c1noc2c(F)c3c(cc12)CC1(C(=O)NC(=O)NC1=O)[C@H]1[C@H](C)O[C@H](C)CN31` (relative stereo) [Example 134, (2R,4S,4aS)-rel-ethyl 11-fluoro-2,4-dimethyl-2′,4′,6′-trioxo-2,2′,3′,4,4a,4′,6,6′-octahydro-1H,1′H-spiro[isoxazolo[4,5-g][1,4]oxazino[4,3-a]quinoline-5,5′-pyrimidine]-8-carboxylate] to `C[C@H]1CN2c3c(cc4c(C(=O)NCC(F)F)noc4c3F)CC3(C(=O)NC(=O)NC3=O)[C@@H]2[C@@H](C)O1` [Example 94(a), (2S,4R,4aR)—N-(2,2-difluoroethyl)-11-fluoro-2,4-dimethyl-2′,4′,6′-trioxo-2,2′,3′,4,4a,4′,6,6′-octahydro-1H,1′H-spiro[isoxazolo[4,5-g][1,4]oxazino[4,3-a]quinoline-5,5′-pyrimidine]-8-carboxamide], the IC50 rises from 1000 nM to 51000 nM (51-fold). The first is the more potent here.

`C[C@@H]1CN2c3c(cc4c(NCc5ccncc5)noc4c3F)CC3(C(=O)NC(=O)NC3=O)[C@H]2[C@H](C)O1` (relative stereo) [Example 16, (2R,4S,4aS)-rel-11-fluoro-2,4-dimethyl-8-[(pyridin-4-ylmethyl)amino]-1,2,4,4a-tetrahydro-2′H,6H-spiro[1,4-oxazino[4,3-a][1,2]oxazolo[4,5-g]quinoline-5,5′-pyrimidine]-2′,4′,6′(1′H,3′H)-trione] and `C[C@@H]1CN2c3c(cc4c(NCc5ccccc5)noc4c3F)CC3(C(=O)NC(=O)NC3=O)[C@H]2[C@H](C)O1` (racemic) [Example 9, (2R,4S,4 aS)-rel-8-(benzylamino)-11-fluoro-2,4-dimethyl-1,2,4,4a-tetrahydro-2′H,6H-spiro[1,4-oxazino[4,3-a][1,2]oxazolo[4,5-g]quinoline-5,5′-pyrimidine]-2′,4′,6′(1′H,3′H)-trione] are within 1.5-fold of each other in IC50: 2400 nM for the first, 1700 nM for the second.

`C[C@@H]1CN2c3c(cc4c(-c5ccccc5F)noc4c3F)CC3(C(=O)NC(=O)NC3=O)[C@H]2[C@H](C)O1` (relative stereo) [Example 99, (2R,4S,4aS)-rel-11-fluoro-8-(2-fluorophenyl)-2,4-dimethyl-2,4,4a,6-tetrahydro-1H,1′H-spiro[isoxazolo[4,5-g][1,4]oxazino[4,3-a]quinoline-5,5′-pyrimidine]-2′,4′,6′(3′H)-trione] and `C[C@@H]1CN2c3c(cc4c(-c5ccncn5)noc4c3F)CC3(C(=O)NC(=O)NC3=O)[C@H]2[C@H](C)O1` [Example 74(b), (2R,4S,4aS)-11-fluoro-2,4-dimethyl-8-(pyrimidin-4-yl)-2,4,4a,6-tetrahydro-1H,1′H-spiro[isoxazolo[4,5-g][1,4]oxazino[4,3-a]quinoline-5,5′-pyrimidine]-2′,4′,6′(3′H)-trione] are within 1.5-fold of each other in IC50: 400 nM for the first, 300 nM for the second.

Compared with `C[C@@H]1CN2c3c(cc4c(-c5scnc5C(=O)N5CCOCC5)noc4c3F)CC3(C(=O)NC(=O)NC3=O)[C@H]2[C@H](C)O1` (relative stereo) [Example 85, (2R,4S,4aS)-rel-11-fluoro-2,4-dimethyl-8-[4-(morpholin-4-ylcarbonyl)-1,3-thiazol-5-yl]-1,2,4,4a-tetrahydro-2′H,6H-spiro[1,4-oxazino[4,3-a][1,2]oxazolo[4,5-g]quinoline-5,5′-pyrimidine]-2′,4′,6′(1′H,3′H)-trione], `C[C@@H]1CN2c3c(cc4c(-c5cncc(N(C)C)n5)noc4c3F)CC3(C(=O)NC(=O)NC3=O)[C@H]2[C@H](C)O1` (relative stereo) [Example 177, (2R,4S,4aS)-rel-8-(6-(dimethylamino)pyrazin-2-yl)-11-fluoro-2,4-dimethyl-2,4,4a,6-tetrahydro-1H,1′H-spiro[isoxazolo[4,5-g][1,4]oxazino[4,3-a]quinoline-5,5′-pyrimidine]-2′,4′,6′(3′H)-trione] is 3.4-fold lower in IC50: 17000 nM for the first, 5000 nM for the second.
